Broadly, the MIC90 is the lowest concentration that inhibits either 90% of growth or 90% of the strains tested, depending on the study.

In brackets after ≈: the same amount, converted by molar mass. Where a name gives a salt, the structure may show the parent alone.

This note sets out measurements from patent US6313305A, “Cephalosporins” (Hoechst Marion Roussel, priority 1991, dated 2001).

Common to all, as to format: cell-based
Assay [1] relates to Enterobacteria producting β lactamase with enlarged spectrum (16 strains). The assay can be described thus: In vitro activity, method of dilutions in solid medium (TABLE II): Enterobacteria producing β lactamase with enlarged spectrum. The conditions noted are these: 24 h. The procedure:
(§1) In Vitro Activity, Method of Dilutions in Solid Medium
(§2) A series of dishes was prepared in which an equal amount of sterile nutritional medium was distributed containing increasing amounts of the test product. Then, each dish was seeded with several bacteria strains and after incubation in an oven for 24 hours at 37° C., the growth inhibition was evaluated by the absence of any bacterial development, which allowed the minimal inhibiting concentrations (M.I.C.) to be determined expressed in micrograms/ml. The results were expressed in M.I.C. 90 which is the minimum concentration of antibiotic allowing the growth of the strains studied to be inhibited by […] (TABLE II).

Assay [2] concerns Enterobacteria producing cephalosporinases (20 strains). The assay can be described thus: In vitro activity, method of dilutions in solid medium (TABLE II): Enterobacteria producing cephalosporinases. As to conditions: 24 h. As for the experimental part: as §1, §2
The test system of assay [3] is Pseudomonas Aeruginosa (39 strains). Nature of the assay: In vitro activity, method of dilutions in solid medium (TABLE II): Pseudomonas aeruginosa. As to conditions: 24 hours at 37° C. As for the experimental part: as §1, §2
The subject of assay [4] is oracillin-sensitive penicillin-resistants Staphylococci aureus (20 strains). The assay can be described thus: In vitro activity, method of dilutions in solid medium (TABLE II): oracillin-sensitive penicillin-resistant Staphylococcus aureus. The conditions noted are these: 24 hours at 37° C. As for the experimental part: as §1, §2

Take `COc1cc(C(O/N=C(\C(=O)N[C@@H]2C(=O)N3C(C(=O)[O-])=C(/C=C/C[n+]4cccc5ccccc54)CS[C@H]23)c2csc(N)n2)C(=O)O)c(Cl)c(O)c1O` (stereo partly drawn) [Example 43]: the MIC90 in assay [1] is 1.2 µg/mL (≈ 1.56 µM); in assay [2] it was 2.5 µg/mL (≈ 3.26 µM); in assay [3], 1.2 µg/mL (≈ 1.56 µM); in assay [4] it was 0.3 µg/mL (≈ 0.391 µM).
For `Nc1nc(/C(=N/OC(C(=O)O)c2cc(Cl)c(O)c(O)c2Cl)C(=O)N[C@@H]2C(=O)N3C(C(=O)[O-])=C(/C=C/C[n+]4cccc5c4CCC5)CS[C@H]23)cs1` (stereo partly drawn) [Example 27, Internal salt of (6R-(3-(E) 6α, 7β-(Z)))-1-(3-(7-(((2-amino-4-thiazolyl)-(carboxy-(2,5-dichloro-3,4-dihydroxy-phenyl)-methoxy)-imino)-acetamido)-2-carboxy-8-oxo-5-thia-1-azabicyclo[4,2,0]oct-2-en-3-yl)-2-propenyl)-6,7-dihydro-5H-pyrindinium], the MIC90 in assay [1] was 10 µg/mL; in assay [2] it was 0.3 µg/mL; in assay [3], 0.08 µg/mL; in assay [4], 5 µg/mL.
On the same counts, the results for `Nc1nc(/C(=N/OC(C(=O)O)c2cc(F)c(O)c(O)c2F)C(=O)N[C@@H]2C(=O)N3C(C(=O)[O-])=C(/C=C/C[n+]4ccn5ccccc54)CS[C@H]23)cs1` (stereo partly drawn) [Example 39, Internal Salt of (6R-(3-(E) 6α, 7β(Z)))-1-(3-(7-(((2-Amino-4-thiazolyl)(carboxy-(2,5-difluoro-3,4-dihydroxyphenyl)-methoxy)-imino)-acetamido)-2-carboxy-8-oxo-5-thia-1-azabicyclo[4,2,0]oct-2-en-3-yl)-2-propenyl)-imidazo(1,2-a)pyridinium] are 2.5 µg/mL, 0.3 µg/mL, 0.08 µg/mL and 2.5 µg/mL.
